The source of these data is article PMC10690437 (Nature immunology, 2023).

In this test the test system is HLA-E. Briefly: HLA-E expression on PBMCs after IFNγ treatment. Type of test: cell-based, human. Particulars: PBMCs cultured with 5 ng ml^−1 IFNγ for 2 days; 3D12 flow cytometry.

With “IFNγ: interferon-γ (BioLegend, PeproTech)”, the “HLA-E surface expression on peripheral blood cells” value is on record as “increase in HLA-E surface expression”.
